Source: the RepoRT retention time repository (doi:10.1038/s41586-021-03707-9)

Legend:
[1] = RP, Waters ACQUITY UPLC HSS C18, 100 × 2.1 mm, 1.7 µm, 40 °C, 0.35 mL/min, estimated dead time 0.63 min; A: water + 0.1% formic acid; B: methanol + 0.1% formic acid; gradient (min/%B) 0/0.5 4/70 4.5/98 5.4/98; details: stereoisomer not certain
[2] = Waters ACQUITY UPLC BEH C18, 100 × 2.1 mm, 1.7 µm, 40 °C, 0.28 mL/min, estimated dead time 0.63 min; A: water + 6.5 mM ammonium hydroxide; B: methanol + 6.5 mM ammonium hydroxide; gradient (min/%B) 0/0.5 4/70 4.5/98 5.4/98; details: stereoisomer not certain

Row | LC retention time [1] [min] | LC retention time [2] [min] | SMILES
1 | 4.36 | 4.18 | COC(=O)c1ccc(O)c(OC)c1
2 | 1.25 | 0.796 | Nc1cc(C(=O)O)ccc1O
3 | 2.47 | 1.92 | Cn1c(=O)c2[nH]c(=O)[nH]c2n(C)c1=O
4 | 5.21 | 5.38 | CCOC(=O)Cc1c[nH]c2ccccc12
5 | 0.909 | 0.812 | NCCCCC(=O)O
6 | 2.23 | 1.49 | O=C(O)Cc1cc(O)ccc1O
7 | 1.79 | 1.68 | Nc1ccccc1S(=O)(=O)O
8 | 2.41 | 0.852 | Nc1ccc(C(=O)O)cc1
9 | 3.56 | 1.31 | CCC(O)(CC)C(=O)O
10 | 1.01 | 0.811 | O=C(O)c1cc(=O)[nH]c(=O)[nH]1
11 | 3.93 | 2.59 | O=C(O)C(O)Cc1c[nH]c2ccccc12 (stereo not given)
12 | 2.33 | 3.02 | Cn1cnc2c(ncn2C2OC(CO)C(O)C2O)c1=N (stereo not given)
13 | 4.88 | 4.57 | CCCCCCSCC(NC(=O)CCC(N)C(=O)O)C(=O)NCC(=O)O (stereo not given)
14 | 1.05 | 1.99 | Nc1ncnc2nc[nH]c12
15 | 1.96 | 1.77 | CCCCC(N)C(=O)O (stereo not given)
16 | 0.86 | 0.962 | OCC1OC(OC2(CO)OC(CO)C(O)C2O)C(O)C(O)C1O (stereo not given)
17 | 0.766 | 0.796 | NC(=O)NCCCC(N)C(=O)O (stereo not given)
18 | 4.09 | 2.72 | COc1ccc2[nH]cc(CC(=O)O)c2c1
19 | 0.799 | 0.804 | CC(O)CC(=O)O (stereo not given)
20 | 3.42 | 1.89 | COc1cc(CC(=O)O)ccc1O
21 | 0.779 | 0.778 | NC1(C(=O)O)CC1
22 | 0.835 | 1.05 | OCC1OC(OCC2OC(OC3(CO)OC(CO)C(O)C3O)C(O)C(O)C2O)C(O)C(O)C1O (stereo not given)
23 | 3.21 | 3.07 | O=C(O)c1ccc2ccccc2n1
24 | 3.56 | 3.12 | NC(=O)c1ccccc1O

Row | LC retention time [1] [min] | LC retention time [2] [min] | SMILES
25 | 3.94 | 4.91 | CC(C)=CCNc1ncnc2nc[nH]c12
26 | 0.912 | 0.926 | Nc1ccn(C2OC(CO)C3OP(=O)(O)OC32)c(=O)n1 (stereo not given)
27 | 1.29 | 1.73 | Nc1ccn(C2CC(O)C(CO)O2)c(=O)n1 (stereo not given)
28 | 3.39 | 2.36 | O=Cc1ccc(O)cc1
29 | 3.45 | 3.72 | CC1(C)SC2C(NC(=O)C(N)c3ccccc3)C(=O)N2C1C(=O)O (stereo not given)
30 | 0.822 | 0.848 | C[n+]1cccc(C(=O)[O-])c1
31 | 0.783 | 1 | Nc1ccnc(=O)[nH]1
32 | 4 | 3.24 | CC(NC(=O)Cc1c[nH]c2ccccc12)C(=O)O (stereo not given)
33 | 2.29 | 2.34 | Cc1cn(C2CC(O)C(CO)O2)c(=O)[nH]c1=O (stereo not given)
34 | 2.12 | 1.78 | CC1=CC(=O)NS(=O)(=O)O1
35 | 0.814 | 0.803 | C[N+](C)(C)CCCC(=O)[O-]
36 | 4.09 | 3.05 | CC(=O)c1ccc(O)cc1O
37 | 1.97 | 2.54 | Cc1ncc(CO)c(C(=O)O)c1O
38 | 1.95 | 0.923 | CC(=O)NCCCC(=O)O
39 | 2.83 | 1.95 | Oc1ccc(O)cc1
40 | 1.86 | 2.48 | Nc1ncnc2c1ncn2C1OC(CO)C(O)C1O (stereo not given)
41 | 4.22 | 4.36 | OCCc1c[nH]c2ccccc12
42 | 0.864 | 0.865 | OCC1OCC(O)C(O)C1O (stereo not given)
43 | 3.33 | 0.869 | COc1cc(C(=O)O)ccc1O
44 | 4.6 | 4.75 | NC(=O)CCCCC1CCSS1 (stereo not given)
45 | 2.44 | 1.1 | NC(Cc1ccc(O)c([N+](=O)[O-])c1)C(=O)O (stereo not given)
46 | 3.22 | 2.42 | [2H]c1c([2H])c([2H])c(C(=O)NCC(=O)O)c([2H])c1[2H]
47 | 1.95 | 2.32 | Nc1ncnc2c1ncn2C1OC2COP(=O)(O)OC2C1O (stereo not given)
48 | 0.82 | 0.86 | CN(CC(=O)O)C(=N)N

Row | LC retention time [1] [min] | LC retention time [2] [min] | SMILES
49 | 5.37 | 4.61 | CC(C(=O)O)c1cccc(C(=O)c2ccccc2)c1 (stereo not given)
50 | 4.43 | 5.35 | CCOC(=O)C1=CC(OC(CC)CC)C(NC(C)=O)C(N)C1 (stereo not given)
51 | 3.88 | 2.67 | CC1NC(=O)NC1CCCCCC(=O)O (stereo not given)
52 | 3.18 | 2.57 | O=C(O)c1cc(=O)c2ccccc2[nH]1
53 | 0.808 | 0.818 | NC(C(=O)O)c1ccc(O)cc1 (stereo not given)
54 | 2.78 | 1.81 | Cn1c(=O)[nH]c2[nH]c(=O)n(C)c2c1=O
55 | 0.804 | 0.822 | O=C1OC(C(O)CO)C(O)C1O (stereo not given)
56 | 4.05 | 4.19 | COc1ccc2[nH]cc(CCNC(C)=O)c2c1
57 | 1.91 | 0.854 | CC(=O)NC1C(O)OC(CO)C(O)C1OC(C)C(=O)O (stereo not given)
58 | 1.1 | 1.49 | Nc1ccn(C2OC(CO)C(O)C2O)c(=O)n1 (stereo not given)
59 | 3.22 | 2.96 | NCCCCC(NC(CCc1ccccc1)C(=O)O)C(=O)N1CCCC1C(=O)O (stereo not given)
60 | 2.95 | 3.04 | O=C1CCCc2[nH]ccc21
61 | 2.97 | 2.17 | CCC(C)C(=O)NCC(=O)O (stereo not given)
62 | 2.59 | 0.832 | O=C(O)c1ccc(O)c(O)c1O
63 | 4.15 | 4.23 | Oc1ccc(C=Cc2cc(O)cc(O)c2)cc1
64 | 1.32 | 0.812 | Nc1cc(O)cc(C(=O)O)c1
65 | 0.903 | 0.916 | CC(=O)NC(CCCCN)C(=O)O (stereo not given)
66 | 3.82 | 5.01 | CCOC(=O)C(N)Cc1c[nH]c2ccccc12 (stereo not given)
67 | 4.65 | 5.1 | CCCCCCCC(=O)OC(CC(=O)[O-])C[N+](C)(C)C (stereo not given)
68 | 3.39 | 3.44 | CCC1(C)CC(=O)NC1=O (stereo not given)
69 | 4.7 | 4.85 | c1ccc2[nH]ccc2c1
70 | 3.34 | 4.93 | Cc1cc2nc[nH]c2cc1C
71 | 0.995 | 0.767 | O=C1CC(C(=O)O)NC(=O)N1 (stereo not given)
72 | 2.51 | 2.58 | CC(=O)Nc1ccc(O)cc1

Row | LC retention time [1] [min] | LC retention time [2] [min] | SMILES
73 | 3.64 | 0.823 | O=C(O)C(O)c1ccc(O)cc1 (stereo not given)
74 | 1.13 | 0.78 | CC(=O)NCC(=O)O
75 | 3.52 | 3.63 | NC(=O)Cc1c[nH]c2ccccc12
76 | 2.8 | 2.68 | Cn1c(=O)[nH]c2ncn(C)c2c1=O
77 | 1.87 | 1.94 | CC1CNC(=O)NC1=O (stereo not given)
78 |  | 3.54 | Cc1cc(C(=O)O)ccc1O
79 |  | 3.55 | O=Cc1cccc(O)c1
80 |  | 2.77 | Cc1ccc(OC2OC(C(=O)O)C(O)C(O)C2O)cc1 (stereo not given)
81 |  | 0.917 | Nc1ncnc2c1ncn2C1OC(COP(=O)(O)OP(=O)(O)OC2OC(CO)C(O)C(O)C2O)C(O)C1O (stereo not given)
82 |  | 1.7 | O=C(O)CNC(=O)c1ccco1
83 |  | 0.828 | O=c1[nH]c(=O)c2[nH]c(=O)[nH]c2[nH]1
84 |  | 3.07 | NC(N)=Nc1nc(CSCCC(N)=NS(N)(=O)=O)cs1
85 |  | 2.21 | Cc1ccccc1C(=O)O
86 |  | 4 | Cc1cccc(O)c1O
87 |  | 1.26 | NC(=O)c1ccc[n+](C2OC(COP(=O)(O)OP(=O)(O)OCC3OC(n4cnc5c(=O)[nH]cnc54)C(O)C3O)C(O)C2O)c1 (stereo not given)
88 |  | 1.02 | CCCC(N)C(=O)O (stereo not given)
89 |  | 2.9 | Cc1ccc(OS(=O)(=O)O)cc1
90 |  | 0.892 | OCC1OC(OCC2OC(O)(CO)C(O)C2O)C(O)C(O)C1O (stereo not given)
91 |  | 0.843 | NCC1CCC(C(=O)O)CC1 (stereo not given)
92 |  | 3.63 | CN=C(NC#N)NCCSCc1nc[nH]c1C
93 |  | 4.19 | O=Cc1c[nH]c2ccccc12

Row | SMILES | LC retention time [1] [min] | LC retention time [2] [min]
94 | NCCc1c[nH]c2ccc(O)cc12 | 1.9 | 2.35
95 | O=C(O)c1ccc(=O)[nH]c1 | 1.96 | 0.819
96 | COc1ccc(OC)c(C(O)C(C)N)c1 (stereo not given) | 3.14 | 3.99
97 | O=C(O)Cc1cnc[nH]1 | 0.825 | 0.817
98 | NCCc1ccc(O)cc1 | 1.7 | 2.22
99 | O=c1ccc2cc(OC3OC(CO)C(O)C(O)C3O)c(O)cc2o1 (stereo not given) | 2.78 | 2.17
100 | NCC(O)c1ccccc1 (stereo not given) | 2.04 | 3.07
101 | COc1ccc2[nH]cc(CCN)c2c1 |  | 3.64
